In US20100267561A1, “HERBICIDAL PYRIDAZINONE DERIVATIVES” (priority 2007, published 2010):

How the values were obtained:
Assay type in all cases: in vivo
[1] = test system: soybean (Glycine max); assay: Test B pre-/postemergence plant response
Description: (§1) Seeds of plant species selected from blackgrass (Alopecurus myosuroides), downy bromegrass (Bromus tectorum), green foxtail (Setaria viridis), Italian ryegrass (Lolium multiflorum), wheat (Triticum aestivum), wild oat (Avena fatua), catchweed bedstraw (Galium aparine), bermudagrass (Cynodon dactylon), surinam grass (Brachiaria decumbens), cocklebur (Xanthium strumarium), corn (Zea mays), large crabgrass (Digitaria sanguinalis), woolly cupgrass (Eriochloa villosa), giant foxtail (Setaria faberii), goosegrass (Eleusine indica), johnsongrass (Sorghum halepense), kochia (Kochia scoparia), lambsquarters (Chenopodium album), morningglory (Ipomoea coccinea), eastern black (E.B.) nightshade (Solanum ptycanthum), yellow nutsedge (Cyperus esculentus), pigweed (Amaranthus retroflexus), common ragweed (Ambrosia elation), Russian thistle (Salsola iberica), soybean (Glycine max), common (oilseed) sunflower (Helianthus annuus), and velvetleaf (Abutilon theophrasti) were planted and treated preemergence with test chemicals formulated in a non-phytotoxic solvent mixture which included a surfactant.
(§2) At the same time, plants selected from these crop and weed species and also winter barley (Hordeum vulgare), canarygrass (Phalaris minor), chickweed (Stellaria media) and windgrass (Apera spica-venti) were treated with postemergence applications of some of the test chemicals formulated in the same manner. Plants ranged in height from 2 to 18 cm (1- to 4-leaf stage) for postemergence treatments.
(§3) Plant species in the flooded paddy test consisted of rice (Oryza sativa), umbrella sedge (Cyperus difformis), ducksalad (Heteranthera limosa) and barnyardgrass (Echinochloa crus-galli) grown to the 2-leaf stage for testing. At time of treatment, test pots were flooded to 3 cm above the soil surface, treated by application of test compounds directly to the paddy water, and then maintained at that water depth for the duration of the test. Treated plants and controls were maintained in a greenhouse for 13 to 15 days, after which time all species were compared to controls and visually evaluated. Plant response ratings, summarized in Table B, are based on a scale of 0 to 100 where 0 is no effect and 100 is complete control. A dash (-) response means no test result.

[2] = test system: blackgrass (Alopecurus myosuroides); assay: Test B pre-/postemergence plant response
Description: as §1, §2, §3

[3] = test system: wheat (Triticum aestivum); assay: Test B pre-/postemergence plant response
Description: as §1, §2, §3

[4] = test system: bermudagrass (Cynodon dactylon); assay: Test B pre-/postemergence plant response
Description: as §1, §2, §3

[5] = test system: common (oilseed) sunflower (Helianthus annuus); assay: Test B pre-/postemergence plant response; conditions: Preemergence
Description: as §1, §2, §3

[6] = test system: pigweed (Amaranthus retroflexus); assay: Test B pre-/postemergence plant response
Description: as §1, §2, §3

[7] = test system: downy bromegrass (Bromus tectorum); assay: Test B pre-/postemergence plant response
Description: as §1, §2, §3

[8] = test system: goosegrass (Eleusine indica); assay: Test B pre-/postemergence plant response
Description: as §1, §2, §3

[9] = test system: giant foxtail (Setaria faberii); assay: Test B pre-/postemergence plant response
Description: as §1, §2, §3

[10] = test system: velvetleaf (Abutilon theophrasti); assay: Test B pre-/postemergence plant response
Description: as §1, §2, §3

[11] = test system: johnsongrass (Sorghum halepense); assay: Test B pre-/postemergence plant response
Description: as §1, §2, §3

[12] = test system: giant foxtail (Setaria faberi); assay: Test A pre-/postemergence plant response
Procedure, shortened: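 Seeds were planted in blended loam soil and sand, then treated preemergence by directed soil spray. At that time, emerged plants (one- to two-leaf, 2–10 cm) received postemergence applications of the same surfactant-containing formulation. Injury was assessed visually on a 0–100 scale after approximately 10 days.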

[13] = Postemergence, 31 g ai/ha, scale 0 to 100, 0 no effect, 100 complete control
[14] = Postemergence, 62 g ai/ha, scale 0 to 100
[15] = Postemergence, 125 g ai/ha, scale 0 to 100
[16] = Postemergence, 250 g ai/ha, scale 0 to 100
[17] = Preemergence, 31 g ai/ha, 0 to 100 scale, 0 no effect, 100 complete control
[18] = Preemergence, 62 g ai/ha, scale 0 to 100
[19] = Preemergence, 125 g ai/ha, scale 0 to 100
[20] = Preemergence, 250 g ai/ha, scale 0 to 100
[21] = 250 g ai/ha, preemergence, 0-100 scale

For Cc1cc(-c2ccc(Br)cc2)nn1-c1c(OC(=O)OC(C)C)cnn(C)c1=O [Compound 6], the “Plant response rating, Soybean” value [1, 13] was 0, the “Plant response rating, Soybean” value [1, 14] was 60 and the “Plant response rating, Soybean” value [1, 15] was 75. The “Plant response rating, Soybean” value [1, 16] was 90, the “Plant response rating, Soybean” value [1, 17] was 0 and the “Plant response rating, Soybean” value [1, 18] was 0. For the same compound, the “Plant response rating, Soybean” value [1, 19] was 40, the “Plant response rating, Soybean” value [1, 20] was 70 and the “Blackgrass plant response rating” value [2, 21] was 100. The “Plant response rating, Blackgrass” value [2, 13] was 100, the “Plant response rating, Blackgrass” value [2, 14] was 100 and the “Plant response rating, Blackgrass” value [2, 15] was 100. For the same compound, the “Plant response rating, Blackgrass” value [2, 16] was 100, the “Plant response rating, Blackgrass” value [2, 17] was 80 and the “Plant response rating, Blackgrass” value [2, 18] was 100. The “Plant response rating, Blackgrass” value [2, 19] was 100, the “Plant response rating, Wheat” value [3, 13] was 90 and the “Plant response rating, Wheat” value [3, 14] was 100. The “Plant response rating, Wheat” value [3, 15] was 100, the “Plant response rating, Wheat” value [3, 16] was 100 and the “Plant response rating, Wheat” value [3, 17] was 35. The “Plant response rating, Wheat” value [3, 18] was 80, the “Plant response rating, Wheat” value [3, 19] was 90 and the “Plant response rating, Wheat” value [3, 20] was 90. For the same compound, the “Bermudagrass plant response rating” value [4, 21] was 100, the “Plant response rating, Bermudagrass” value [4, 13] was 100 and the “Plant response rating, Bermudagrass” value [4, 14] was 100. The “Plant response rating, Bermudagrass” value [4, 15] was 100, the “Plant response rating, Bermudagrass” value [4, 16] was 100 and the “Plant response rating, Bermudagrass” value [4, 17] was 100. For the same compound, the “Plant response rating, Bermudagrass” value [4, 18] was 100, the “Plant response rating, Bermudagrass” value [4, 19] was 100 and the “Plant response rating, Sunflower” value ([5]; 31 g ai/ha, 0 to 100 scale, 0 no effect, 100 complete control) was 0. The “Plant response rating, Sunflower” value ([5]; 62 g ai/ha, scale 0 to 100) was 0, the “Plant response rating, Sunflower” value ([5]; 125 g ai/ha, scale 0 to 100) was 0 and the “Plant response rating, Sunflower” value ([5]; 250 g ai/ha, scale 0 to 100) was 0. For the same compound, the “Plant response rating, Pigweed” value [6, 13] was 0, the “Plant response rating, Pigweed” value [6, 14] was 0 and the “Plant response rating, Pigweed” value [6, 15] was 0. The “Plant response rating, Pigweed” value [6, 16] was 40, the “Plant response rating, Pigweed” value [6, 18] was 0 and the “Plant response rating, Pigweed” value [6, 19] was 30. The “Plant response rating, Pigweed” value [6, 20] was 60, the “Plant response rating, Bromegrass, Downy” value [7, 13] was 5 and the “Plant response rating, Bromegrass, Downy” value [7, 14] was 5. The “Plant response rating, Bromegrass, Downy” value [7, 15] was 5, the “Plant response rating, Bromegrass, Downy” value [7, 16] was 10 and the “Plant response rating, Bromegrass, Downy” value [7, 17] was 50. The “Plant response rating, Bromegrass, Downy” value [7, 18] was 65, the “Plant response rating, Bromegrass, Downy” value [7, 19] was 65 and the “Plant response rating, Bromegrass, Downy” value ([7]; Preemergence, 250 g ai/ha, scale 0 to 100 (0 no effect, 100 complete control)) was 95. The “Plant response rating, Goosegrass” value [8, 13] was 95, the “Plant response rating, Goosegrass” value [8, 14] was 100 and the “Plant response rating, Goosegrass” value [8, 15] was 100. The “Plant response rating, Goosegrass” value [8, 16] was 100, the “Plant response rating, Goosegrass” value [8, 17] was 80 and the “Plant response rating, Goosegrass” value [8, 18] was 95. The “Plant response rating, Goosegrass” value [8, 19] was 100, the “Plant response rating, Goosegrass” value [8, 20] was 100 and the “Plant response rating, Foxtail, Giant” value [9, 13] was 100. For the same compound, the “Plant response rating, Foxtail, Giant” value [9, 14] was 100, the “Plant response rating, Foxtail, Giant” value [9, 15] was 100 and the “Plant response rating, Foxtail, Giant” value [9, 16] was 100. The “Plant response rating, Foxtail, Giant” value [9, 17] was 100, the “Plant response rating, Foxtail, Giant” value [9, 18] was 100 and the “Plant response rating, Foxtail, Giant” value [9, 19] was 100. The “Plant response rating, Foxtail, Giant” value [9, 20] was 100, the “Plant response rating, Velvetleaf” value [10, 13] was 0 and the “Plant response rating, Velvetleaf” value [10, 14] was 0. The “Plant response rating, Velvetleaf” value [10, 15] was 0, the “Plant response rating, Velvetleaf” value [10, 16] was 10 and the “Plant response rating, Velvetleaf” value [10, 17] was 0. For the same compound, the “Plant response rating, Velvetleaf” value [10, 18] was 0, the “Plant response rating, Velvetleaf” value [10, 19] was 0 and the “Plant response rating, Velvetleaf” value [10, 20] was 40. For the same compound, the “Plant response rating, Johnsongrass” value [11, 13] was 0, the “Plant response rating, Johnsongrass” value [11, 14] was 0 and the “Plant response rating, Johnsongrass” value [11, 17] was 60. The “Plant response rating, Johnsongrass” value [11, 18] was 90, the “Plant response rating, Johnsongrass” value [11, 19] was 95 and the “Plant response rating, Johnsongrass” value [11, 20] was 100. For the same compound, the “Plant response rating, Foxtail, Giant” value ([12]; Postemergence, 125 g ai/ha, 0 to 100 scale, 0 no effect, 100 complete control) was 90, the “Plant response rating, Foxtail, Giant” value ([12]; Postemergence, 500 g ai/ha, 0 to 100 scale, 0 no effect, 100 complete control) was 90 and the “Plant response rating, Foxtail, Giant” value ([12]; Preemergence, 125 g ai/ha, 0 to 100 scale (0 no effect, 100 complete control)) was 100. For the same compound, the “Plant response rating, Foxtail, Giant” value ([12]; Preemergence, 500 g ai/ha, 0 to 100 scale (0 no effect, 100 complete control)) was 100.
